From paper PMC5078989, “Targeted inhibition of the COP9 signalosome for treatment of cancer” (Nature Communications, 2016)
pEC50: −log10 of the molar value.

Test system: panel of cancer cell lines
Assay: Cell viability (CellTiter-Glo) dose-response across cancer cell line panel;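 for pEC50: after 72 h compound incubation with CellTiter-Glo ATP readout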
Type: cell-based, human
Settings: for pEC50: Homo sapiens
From the text: Next, we explored the effect of CSN5 inhibition on the viability of cancer cells. To obtain a comprehensive picture, we generated dose–response curves with a CSN5 inhibitor across more than 500 cancer cell lines in a previously described standardized setting[47] (Supplementary Data 1).
A standardized CellTiter-Glo Assay (Promega #G7570) based on the quantification of ATP was applied according to the manufacturer's protocol to measure the amount of viable cells in culture. In brief, cells were seeded into 384-well plates at optimal density for each cell line. After 4 h, compounds were added at different concentrations in growth medium and incubated for another 72 h in a humidifying chamber at 37 °C and 5% CO2. […] EC50 values were calculated from the plot of percentage of inhibition versus inhibitor concentration using the nonlinear regression analysis software Origin 7.5SR6 (OriginLab Corp.).

`NS(=O)(=O)OC[C@@H]1C[C@@H](n2ccc3c(N[C@H]4CCc5ccccc54)ncnc32)C[C@@H]1O` [MLN4924] showed a pEC50 (SNU-685) of 6.14, a pEC50 (SNU-738) of 6.39 and a pEC50 (SNU-761) of 6.06. For the same molecule, the pEC50 (SNU-886, SNU-886) was 7.37, the pEC50 (SNU-1040) was 6.80 and the pEC50 (SNU-1079) was 6.41. It also gave a pEC50 (SNU-C1, SNU-C1) of 5.79, a pEC50 (SNU-C2A) of 5.19 and a pEC50 (SNU-C4, SNU-C4) of 5.95. For the same molecule, the pEC50 (SNU-C5) was 6.23, the pEC50 (SR-786, SR-786) was 6.07 and the pEC50 (SU-DHL10, SU-DHL-10) was 6.69. The pEC50 (SU-DHL-4, SU-DHL-4) was 7.12, the pEC50 (SU-DHL-5, SU-DHL-5) was 7.00 and the pEC50 (SU-DHL-6, SU-DHL-6) was 6.61. It also gave a pEC50 (SU-DHL-8, SU-DHL-8) of 6.81, a pEC50 (SU.86.86, SU.86.86) of 6.11 and a pEC50 (SUIT-2, SUIT-2) of 6.73. The pEC50 (SUM52PE) was 6.96, the pEC50 (SUM149PT) was 6.21 and the pEC50 (SUM185PE) was 7.20. It also gave a pEC50 (SUM190PT) of 7.00, a pEC50 (SUM-159-PT, SUM159PT) of 5.16 and a pEC50 (SUP-T1, SUP-T1) of 6.81. It also gave a pEC50 (SW48, SW48) of 6.84, a pEC50 (SW480, SW480) of 6.40 and a pEC50 (SW900, SW 900) of 5.82. The pEC50 (SW982, SW982) was 6.09, the pEC50 (SW1088, SW 1088) was < 4.52 and the pEC50 (SW1271, SW 1271) was 6.28. For the same molecule, the pEC50 (SW1353, SW 1353) was 5.54, the pEC50 (SW1573, SW 1573) was 6.65 and the pEC50 (SW1783, SW 1783) was < 4.52. It also gave a pEC50 (SW-403, SW403) of 6.10, a pEC50 (SW-620, SW620) of 5.82 and a pEC50 (SYO-1) of 6.55. It also gave a pEC50 (Sq-1) of 6.78, a pEC50 (T3M4, T3M-4) of 6.34 and a pEC50 (T47D, T-47D) of 6.50. It also gave a pEC50 (TALL-1, TALL-1) of 6.35, a pEC50 (TANOUE) of 7.24 and a pEC50 (TC-71, TC-71) of 6.80. The pEC50 (TCC-PAN2) was 5.89, the pEC50 (TE-1, TE-1) was 5.77 and the pEC50 (TE-6, TE-6) was 6.37. It also gave a pEC50 (TE-11, TE-11) of 6.61, a pEC50 (TE-14) of 6.47 and a pEC50 (TF-1, TF-1) of 5.77. It also gave a pEC50 (THP-1, THP-1) of 6.76, a pEC50 (TT2609-C02) of 6.48 and a pEC50 (TYK-nu) of 6.81. It also gave a pEC50 (U266B1) of 6.08, a pEC50 (U-87 MG) of 6.35 and a pEC50 (U-118-MG, U-118 MG) of 6.27. The pEC50 (U-251, U-251 MG) was 5.77, the pEC50 (U-937, U-937) was 6.99 and the pEC50 (UACC-62, UACC-62) was 6.72. It also gave a pEC50 (UACC-257, UACC-257) of 6.19, a pEC50 (UCH1, UCH-1) of 5.28 and a pEC50 (UKE1, UKE1) of 6.42. It also gave a pEC50 (VM-CUB-1, VM-CUB1) of 6.08, a pEC50 (VMRC-LCD) of 6.54 and a pEC50 (VMRC-RCW) of 5.91. It also gave a pEC50 (WM 266-4, WM-266-4) of 6.33, a pEC50 (WM983B, WM-983B) of 6.70 and a pEC50 (WM-88) of 6.29. For the same molecule, the pEC50 (WM-115, WM-115) was 5.85, the pEC50 (WM-1799, WM1799) was 6.81 and the pEC50 (WSU-WM) was 6.73. For the same molecule, the pEC50 (YAPC) was 6.69, the pEC50 (ZR-75-1, ZR-75-1) was 6.45 and the AMAX (Hs 695T) was -54.4409. The AMAX (Hs 936.T) was -81.1628, the AMAX (HuG1-N) was -47.6265 and the AMAX (HuH-7) was -61.9045. The AMAX (IGR-37) was -85.5177, the AMAX (IGROV1) was -85.9932 and the AMAX (IPC-298) was -80.8233. It also gave an AMAX (Ishikawa) of -91.0654, an AMAX (J82) of -49.0789 and an AMAX (JHH-4) of -91.4007. It also gave an AMAX (JHOS-2) of -63.2509, an AMAX (JHUEM-2) of -75.0485 and an AMAX (JHUEM-3) of -28.2496. The AMAX (JL-1) was -61.5427, the AMAX (JVM-2) was -91.7997 and the AMAX (KARPAS-422) was -93.0088. It also gave an AMAX (KATO III) of -44.0826, an AMAX (KBM-7) of -98.5101 and an AMAX (KE-97) of -95.9856. The AMAX (KMRC-1) was -84.1268, the AMAX (KP4) was -71.8264 and the AMAX (KP-1N) was -53.1172. For the same molecule, the AMAX (KP-2) was -64.2974, the AMAX (KP-3) was -63.0208 and the AMAX (KU-19-19) was -84.2248. For the same molecule, the AMAX (KYSE-150) was -87.7498, the AMAX (KYSE-180) was -85.8737 and the AMAX (Kasumi3) was -97.5892. The AMAX (L-363) was -96.7272, the AMAX (LC2/ad) was -74.576 and the AMAX (MM138) was -73.7519. It also gave an AMAX (MM415) of -81.4932, an AMAX (MM426) of -75.6165 and an AMAX (MM485) of -69.3744. For the same molecule, the AMAX (MM537) was -69.6122, the AMAX (MOLT-16) was -97.3083 and the AMAX (MeWo) was -75.2037. For the same molecule, the AMAX (NB-1) was -99.4488, the AMAX (NCI-H82) was -97.4475 and the AMAX (NCI-H146) was -90.9498. For the same molecule, the AMAX (NCI-H322) was -80.9979, the AMAX (NCI-H441) was -47.4873 and the AMAX (NCI-H647) was -73.4893. It also gave an AMAX (NCI-H841) of -87.0207, an AMAX (NCI-H1373) of -83.9593 and an AMAX (NCI-H1568) of -95.718. The AMAX (NCI-H1755) was -73.6315, the AMAX (NCI-H2023) was -96.0734 and the AMAX (NCI-H2087) was -83.0999. It also gave an AMAX (NCI-H2110) of -89.6657, an AMAX (NCI-H2452) of -41.6484 and an AMAX (NCI-N87) of -74.5636. For the same molecule, the AMAX (NO36) was -67.5733, the AMAX (OUMS-23) was -78.9353 and the AMAX (OV56) was -95.0768. For the same molecule, the AMAX (P3HR-1) was -93.355, the AMAX (P12-ICHIKAWA) was -96.3019 and the AMAX (PA-TU-8988T) was -81.7224. For the same molecule, the AMAX (PANC-1) was -64.2148, the AMAX (PC-3) was -79.4027 and the AMAX (PE/CA-PJ34 (clone C12)) was -79.361. The AMAX (PE/CA-PJ49) was -67.4836, the AMAX (PF-382) was -98.4673 and the AMAX (PL-21) was -95.522. For the same molecule, the AMAX (Panc 03.27) was -88.9221, the AMAX (Panc 04.03) was -72.0017 and the AMAX (Panc 10.05) was -85.7173. The AMAX (RD-ES) was -97.5942, the AMAX (RT-112) was -90.3953 and the AMAX (SEM) was -97.7133. For the same molecule, the AMAX (SK-ES-1) was -95.0336, the AMAX (SK-MEL-3) was -81.0459 and the AMAX (SW480) was -74.5488. It also gave an AMAX (VMRC-RCW) of -71.6057.
